Laboratory results: publication PMC6350207 (Drug Metabolism Letters, 2018)

Legend:
recombinant UGT enzymes = experiment: Reaction phenotyping with recombinant UGT Supersomes; type: in vitro ADME, human; settings: substrate 20 µM, UGT 0.2 mg/mL, 2 hours
[1] = in humans; cited from earlier work

Compound | Metabolism to the corresponding glucuronide by recombinant UGT enzymes (recombinant UGT enzymes) | Share of drug metabolized to its corresponding glucuronide [1] [%]
CC(C)Cc1ccc(CC(=O)O)cc1 [Ibufenac] | none of the recombinant UGT enzymes studied in the present investigation were found to metabolize ibufenac | –
CCCC(CCC)C(=O)O [valproic acid] | – | 50
